According to patent US20230020329A1, “Annelated 9-hydroxy-1,8-dioxo-1,3,4,8-tetrahydro-2H-pyrido[1,2-a]pyrazine-7-carboxamides as HIV integrase inhibitors, methods of preparation and application thereof” (priority 2019, published 2023):

System: HIV-1 (IIIB strain)
Test: Anti-HIV cytoprotection assay (XTT), HIV-1 IIIB in CEM-SS cells
Assay type: cell-based
Conditions: Human immunodeficiency virus 1, IIIB, CEM-SS, CEM-SS cell line; read-out: Inhibitory activity (EC50) against HIV-1 (IIIB strain)
Text: a) Inhibitory Activity of the Lymphocytropic Virus Strain HIV-1 (IIIB) in the CEM-SS Cell Line.
The evaluation was done by ImQuest BioSciences, Inc. (Frederick, Md., USA). CEM-SS cells [Foley G. E. et al. Continuous Culture of Human Lymphoblasts from Peripheral Blood of a Child with Acute Leukemia. Cancer 1965, 18, 522-529] obtained through the NIH AIDS Research and Reference Reagent Program (Manassas, Va., USA) were passaged in T-75 flasks prior to use cell culture medium consisting of RPMI1640 medium (Lonza; Walkersville, Md., USA) supplemented with 10% heat inactivated fetal bovine serum (Gibco; Grand Island, N.Y.), […] L-glutamine (Lonza), […] penicillin (Lonza) and […] streptomycin (Lonza) for antiviral analysis. The CEM-SS cells were kept in RPMI 140 medium supplemented with 10% heat inactivated bovine fetal serum, 2 mM glutamine, 100 U/ml penicillin, and 100 μg/ml streptomycin.
A lymphocytropic HIV-1 IIIB strain [Popovic, M. et al. Detection, isolation, and continuous production of cytopathic retroviruses (HTLV-III) from patients with AIDS and pre-AIDS. Science. 1984, 224 (4648), 497-500] was chosen for a virus to be analyzed. The virus was obtained through the NIH AIDS Research and Reference Reagents Program and grown in CEM-SS cells to produce a stock virus pool. A pre-titrated aliquot of the virus was removed from the freezer (−80° C.) and allowed to slowly thaw to room temperature in a biological safety cabinet. The virus was diluted in a tissue culture medium so that the amount of virus added in 50 μl per well was sufficient to kill 85 to 95% of the cells 6 days after infection. HIV-1 IIIB was grown and titrated in CEM-SS cells. The inhibitory effect of […] was evaluated in CEM-SS cells as described earlier [Nara, P. L. at al. Simple, rapid, quantitative, syncytium-forming microassay for the detection of human immunodeficiency virus neutralizing antibody. AIDS Res. Hum. Retroviruses 1987, 3, 283-302.] in microtiter plate anti-HIV assays to quantitatively assess the ability of a compound to inhibit HIV-induced cell death. Quantification was carried out using 2,3-bis-(2-methoxy-4-nitro-5-[…])-(2H)-tetrazolium-5-carboxanilide (XTT) tetrazolium, which is metabolized to a stained formazan product through viable […] The compounds given in Table 1 were dissolved at 10 μM in DMSO and stored at −20° C.
Test materials were evaluated using antiviral assays in triplicate in concentrations of 30 and 10 nM. The compounds shown in table 1 were dissolved at 10 μM in DMSO and stored at −20° C. […] Sixty nanomolar concentrations of each compound (2 times that of the test concentration in the well) were prepared by diluting 10 μM DMSO stock 1:100 in cell culture medium (10 μl of compound added to 990 μl of the medium) followed by 1:10 dilution (10 μl of the compound was added to 90 μl of the medium), then 6 μl was added to 994 μl of the medium; […] μl was added to a 96-well microtiter plate in triplicate to ensure efficacy and one colorimetric well. Twenty nanomolar concentrations of each compound (twice as much as the test concentration in the well) were prepared by diluting 10 μM DMSO with the original 1:100 in cell culture medium (10 μl of the compound added to 990 μl of the medium) followed by diluting […] (10 μl of the compound was added to 900 μl of the medium), then 20 μl was added to 980 μl of the medium; 100 μl was added to a 96-well microtiter plate in triplicate to ensure efficacy and one colorimetric well.
Azidothymidine (AZT) was purchased from Sigma Aldrich (USA) and evaluated as a positive control compound in an antiviral assay using a six-concentration reaction curve on each assay plate.
Test compounds were initially evaluated for HIV-1 IIIB strain in CEM-SS cells at test concentrations of 30 and 10 nM. […]

| EC50 [nM] | SMILES |
| --- | --- |
| > 30 | C[C@H]1CO[C@@H]2Cn3cc(C(=O)NCc4nc5c(s4)CCCCC5)c(=O)c(O)c3C(=O)N12 [Compound 1.1.63, (3S,11aR)-6-hydroxy-3-methyl-5,7-dioxo-N-(5,6,7,8-tetrahydro-4H-cyclohepta[d][1,3]thiazol-2-ylmethyl)-2,3,5,7,11,11a-hexahydro[1,3]oxazolo[3,2-a]pyrido[1,2-d]pyrazine-8-carboxamide] |
| 2 to 10 | C[C@@H]1CCO[C@H]2Cn3cc(C(=O)NCc4c(F)cc(F)nc4F)c(=O)c(O)c3C(=O)N12 [Compound 1.2.3, (4R,12aS)-7-hydroxy-4-methyl-N-[(2,4.6-trifluoropyridin-3-yl)methyl]-6,8-dioxo-3,4,6,8,12,12a-hexahydro-2H-pyrido[1′,2′:4,5]pyrazino[2,1-b][1,3]oxazine-9-carboxamide] |
| 2 to 10 | C[C@H]1CO[C@@H]2Cn3cc(C(=O)NCc4n[nH]c5c4CCCCC5)c(=O)c(O)c3C(=O)N12 [Compound 1.1.62, (3S,11aR)-6-hydroxy-N-(1,4,5,6,7,8-hexahydrocyclohepta[c]pyrazol-3-ylmethyl)-3-methyl-5,7-dioxo-2,3,5,7,11,11a-hexahydro[1,3]oxazolo[3,2-a]pyrido[1,2-d]pyrazine-8-carboxamide] |
| 10 to 30 | C[C@H]1CO[C@@H]2Cn3cc(C(=O)NCc4nnc5ccc(Cl)nn45)c(=O)c(O)c3C(=O)N12 [Compound 1.1.60, (3S,11aR)-6-hydroxy-3-methyl-N-[(6-chloro[1,2,4]triazolo[4,3-b]pyridazin-3-yl)methyl]-5,7-dioxo-2,3,5,7,11,11a-hexahydro[1,3]oxazolo[3,2-a]pyrido[1,2-d]pyrazine-8-carboxamide] |
| 10 to 30 | C[C@H]1CO[C@@H]2Cn3cc(C(=O)NCc4ccccn4)c(=O)c(O)c3C(=O)N12 [Compound 1.1.15, (3S,11aR)-6-hydroxy-3-methyl-N-(pyridyl-2-ylmethyl)-5,7-dioxo-2,3,5,7,11,11a-hexahydro[1,3]oxazolo[3,2-a]pyrido[1,2-d]pyrazine-8-carboxamide] |
| > 30 | CC(C)n1c(CNC(=O)c2cn3c(c(O)c2=O)C(=O)N2[C@@H](C)CO[C@@H]2C3)nc2ccccc21 [Compound 1.1.44, (3S,11aR)-6-hydroxy-3-methyl-N-{[1-isopropyl-1H-benzimidazol-2-yl]methyl}-5,7-dioxo-2,3,5,7,11,11a-hexahydro[1,3]oxazolo[3,2-a]pyrido[1,2-d]pyrazine-8-carboxamide] |
| > 30 | C[C@H]1CO[C@@H]2Cn3cc(C(=O)NCc4cnc5ccccn45)c(=O)c(O)c3C(=O)N12 [Compound 1.1.56, (3S,11aR)-6-hydroxy-N-(imidazo[1,2-a]pyridin-3-ylmethyl)-3-methyl-5,7-dioxo-2,3,5,7,11,11a-hexahydro[1,3]oxazolo[3,2-a]pyrido[1,2-d]pyrazine-8-carboxamide] |
| 2 to 10 | C[C@H]1CO[C@@H]2Cn3cc(C(=O)NCc4ccc5ccccc5n4)c(=O)c(O)c3C(=O)N12 [Compound 1.1.49, (3S,11aR)-6-hydroxy-3-methyl-N-(quinolin-2-ylmethyl)-5,7-dioxo-2,3,5,7,11,11a-hexahydro[1,3]oxazolo[3,2-a]pyrido[1,2-d]pyrazine-8-carboxamide] |
| 2 to 10 | C[C@H]1CO[C@@H]2Cn3cc(C(=O)NCc4nc5ccc(Cl)cc5o4)c(=O)c(O)c3C(=O)N12 [Compound 1.1.39, (3S,11aR)-6-hydroxy-3-methyl-N-[(6-chloro-1,3-benzoxazol-2-yl)methyl]-5,7-dioxo-2,3,5,7,11,11a-hexahydro[1,3]oxazolo[3,2-a]pyrido[1,2-d]pyrazine-8-carboxamide] |
| > 30 | C[C@H]1CO[C@@H]2Cn3cc(C(=O)NCc4nc5ccccc5n4C)c(=O)c(O)c3C(=O)N12 [Compound 1.1.42, (3S,11aR)-6-hydroxy-3-methyl-N-[(1-methyl-benzimidazol-2-yl)methyl]-5,7-dioxo-2,3,5,7,11,11a-hexahydro[1,3]oxazolo[3,2-a]pyrido[1,2-d]pyrazine-8-carboxamide] |
| > 30 | C[C@H]1CO[C@@H]2Cn3cc(C(=O)NCc4cn5cccnc5n4)c(=O)c(O)c3C(=O)N12 [Compound 1.1.58, (3S,11aR)-6-hydroxy-N-(imidazo[1,2-a]pyrimidin-2-ylmethyl)-3-methyl-5,7-dioxo-2,3,5,7,11,11a-hexahydro[1,3]oxazolo[3,2-a]pyrido[1,2-d]pyrazine-8-carboxamide] |
| > 30 | C[C@H]1CO[C@@H]2Cn3cc(C(=O)NCc4nnc5n4CCCC5)c(=O)c(O)c3C(=O)N12 [Compound 1.1.61, (3S,11aR)-6-hydroxy-3-methyl-N-(5,6,7,8-tetrahydro[1,2,4]triazolo[4,3-a]pyridin-3-ylmethyl)-5,7-dioxo-2,3,5,7,11,11a-hexahydro[1,3]oxazolo[3,2-a]pyrido[1,2-d]pyrazine-8-carboxamide] |
| 2 to 10 | C[C@@H]1CO[C@@]23CCC[C@@H]2n2cc(C(=O)NCc4ccc(F)nc4F)c(=O)c(O)c2C(=O)N13 [Compound 2.1.1, (3aS,6R,13aS)-9-hydroxy-N-[(2,6-difluoropyridin-3-yl)methyl]-6-methyl-8,10-dioxo-1,2,3,5,6,8,10,13a-octahydrocyclopenta[b][1,3]oxazolo[3,2-a]pyrido[1,2-d]pyrazine-11-carboxamide] |
| ~8 | Cc1n[nH]c(C)c1CNC(=O)c1cn2c(c(O)c1=O)C(=O)N1[C@@H](C)CO[C@@H]1C2 [Compound 1.1.4, (3S,11aR)-6-hydroxy-N-[(3,5-dimethyl-1H-pyrazol-4-yl)methyl]-3-methyl-5,7-dioxo-2,3,5,7,11,11a-hexahydro[1,3]oxazolo[3,2-a]pyrido[1,2-d]pyrazine-8-carboxamide] |
| 10 to 30 | CCn1nc(C)c(CNC(=O)c2cn3c(c(O)c2=O)C(=O)N2[C@@H](C)CO[C@@H]2C3)c1C [Compound 1.1.6, (3S,11aR)-6-hydroxy-N-[(1-ethyl-3,5-dimethyl-1H-pyrazol-4-yl)methyl]3-methyl-5,7-dioxo-2,3,5,7,11,11a-hexahydro[1,3]oxazolo[3,2-a]pyrido[1,2-d]pyrazine-8-carboxamide] |
| > 30 | C[C@H]1CO[C@@H]2Cn3cc(C(=O)NCc4cn5cc(Cl)sc5n4)c(=O)c(O)c3C(=O)N12 [Compound 1.1.28, (3S,11aR)-6-hydroxy-3-methyl-N-[(2-chloroimidazo[2,1-b][1,3]thiazol-6-yl)methyl]-5,7-dioxo-2,3,5,7,11,11a-hexahydro[1,3]oxazolo[3,2-a]pyrido[1,2-d]pyrazine-8-carboxamide] |
| > 30 | Cc1nn2cc(CNC(=O)c3cn4c(c(O)c3=O)C(=O)N3[C@@H](C)CO[C@@H]3C4)nc2s1 [Compound 1.1.30, (3S,11aR)-6-hydroxy-3-methyl-N-[(2-methylimidazo[2,1-b][1,3,4]thiadiazol-6-yl)methyl]-5,7-dioxo-2,3,5,7,11,11a-hexahydro[1,3]oxazolo[3,2-a]pyrido[1,2-d]pyrazine-8-carboxamide] |

| SMILES | EC50 [nM] |
| --- | --- |
| O=C(NCc1c(F)cc(F)nc1F)c1cn2c(c(O)c1=O)C(=O)N1[C@H]3CC[C@H](C3)O[C@@H]1C2 [Compound 1.3.2, (2R,5S,13aR)-8-hydroxy-N-[(2,4,6-trifluoropyridin-3-yl)methyl]-7,9-dioxo-2,3,4,5,7,9,13,13a-octahydro-2,5-methanopyrido[1′,2′:4,5]pyrazino[2,1-b][1,3]oxazepine-10-carboxamide] | 2 to 10 |
